In patent US10023557B2 (LifeSci Pharmaceuticals, Inc., priority 2015, dated 2018):

Columns and labels:
[1] = molecular target: cellular kallikrein activity (Homo sapiens (Human), UniProt P03952); assay: In vitro cellular assay (contact assay): kallikrein activity in ellagic acid-activated human plasma, Z-FR-2-AMC substrate; format: biochemical; details: human plasma activated with ellagic acid, 37° C.
Experimental: The ability of the compounds disclosed herein to inhibit cellular kallikrein activity was quantified and the respective EC50 value was determined.
All dilutions were prepared in an assay buffer comprising 50 mM Tris-HCl pH 7.2, 150 mM NaCl, and 0.01% Triton X-100.
The ten solutions of the test compounds, prepared by serial dilution, were further diluted 50-fold in the assay buffer.
Human plasma is thawed on ice and centrifuged for 15 min at 4° C. to remove platelets. A 1 mM stock solution of ellagic acid is diluted to 8 μM and mixed with human plasma, after removing platelets, at a ratio of 1:0.8.
A 22.5 μL volume of the final mixture of human plasma and ellagic acid was added to a 96-well microwell plate and the plate was incubated for 15 min at 37° C.
The CINH inhibitor at various concentrations, prepared by serial dilutions as described above, were added to the inhibitor control wells. […] Each CINH concentration is tested in duplicates.
The test compounds at various concentrations, also prepared by serial dilutions as described above, are added to the test wells. […] Each test compound concentration was tested in duplicates.
In addition to the inhibitor control and test wells, the 96 well assay plate includes positive control wells which contained the mixture of human plasma and ellagic acid without C1NH inhibitor or test compounds, and background wells which contained neither the mixture of human plasma and ellagic acid nor the test compounds. The total volume of liquid in positive control and background wells was brought up to 35 μL, using the assay buffer.
The assay plate containing C1NH inhibitors and test compounds mixed with human plasma and ellagic acid and appropriate controls was incubated at 37° C. for 5 min. […] The reagents were mixed well by shaking the plate gently for 30 sec.
The enzyme reaction was quantified by immediate kinetic reading of the assay plate using excitation/emission wavelengths of 330 nm/440 nm respectively. Fluorescence intensity was recorded for 60 min, using a time interval of 43 sec.
The inhibition activity of the test compounds were evaluated using the EC50 values, calculated according to the dose-response curve of the test compounds, fitted using the “log(inhibitor)−response (variable slope)” equation in GraphPadPrism software (GraphPad Software, Inc.).
The percentage inhibition was calculated using the following equation:
[formula] where, Mean (BG) is the average value of the fluorescence intensity of the background wells and Mean (PC) is the average value of the fluorescence intensity of the positive control wells.
Table 4 provides the EC50 values of various compounds disclosed herein.

[2] = molecular target: human plasma kallikrein (Homo sapiens (Human), UniProt P03952); assay: In vitro enzyme inhibition of human plasma kallikrein (PFR-AMC cleavage); format: biochemical; details: Pro-Phe-Arg-AMC substrate, 37° C., read-out: hPK IC50
Outline: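 Human plasma kallikrein and compound, diluted in 50 mM Tris-HCl pH 7.5, 150 mM NaCl, 0.01% Triton X-100, preincubated 5 min at 37 °C before PFR-AMC was added.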

Sequence of cellular kallikrein activity (P03952 391-638): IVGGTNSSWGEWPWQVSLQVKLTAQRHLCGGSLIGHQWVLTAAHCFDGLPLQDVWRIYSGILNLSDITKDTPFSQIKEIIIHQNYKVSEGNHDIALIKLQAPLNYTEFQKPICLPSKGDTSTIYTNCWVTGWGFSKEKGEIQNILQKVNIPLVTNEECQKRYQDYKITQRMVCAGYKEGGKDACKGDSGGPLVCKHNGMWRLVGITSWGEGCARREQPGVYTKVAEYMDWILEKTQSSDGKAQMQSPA
Sequence of cellular kallikrein activity (P03952 20-390 partner): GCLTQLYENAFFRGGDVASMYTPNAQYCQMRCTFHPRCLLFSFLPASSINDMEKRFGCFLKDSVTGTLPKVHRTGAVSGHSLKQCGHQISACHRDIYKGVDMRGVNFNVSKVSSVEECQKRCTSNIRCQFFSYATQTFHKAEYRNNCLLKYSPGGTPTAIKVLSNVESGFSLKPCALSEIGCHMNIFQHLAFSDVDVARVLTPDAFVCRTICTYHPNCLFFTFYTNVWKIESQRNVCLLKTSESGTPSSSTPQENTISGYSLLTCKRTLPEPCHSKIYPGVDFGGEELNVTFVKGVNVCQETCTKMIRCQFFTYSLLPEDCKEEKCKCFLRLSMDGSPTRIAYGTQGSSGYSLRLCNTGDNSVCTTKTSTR
Sequence of human plasma kallikrein (P03952 391-638): as the sequence (P03952 391-638) above
Sequence of human plasma kallikrein (P03952 20-390 partner): as the sequence (P03952 20-390 partner) above

Row | EC50 [1] | IC50 [2] | SMILES
1 | < 100 nM | < 100 nM | Nc1nccc2cc(CNC(=O)c3ccnc(Cc4ccc5ncc(C6CC6)cc5c4)c3)ccc12 [Example 247, N-((1-aminoisoquinolin-6-yl)methyl)-2-((3-cyclopropylquinolin-6-yl)methyl)isonicotinamide]
2 | 100 to 1000 nM | < 100 nM | Cc1cc(N)nc(C)c1CNC(=O)c1ccnc(Cc2cc(-c3nnn[nH]3)c3ncc(Cl)cc3c2)c1 [Example 272, N-((6-amino-2,4-dimethylpyridin-3-yl)methyl)-2-((3-chloro-8-(1H-tetrazol-5-yl)quinolin-6-yl)methyl)isonicotinamide]
3 | 100 to 1000 nM | < 100 nM | Nc1nccc2cc(CNC(=O)c3ccnc(Cc4ccc5ncc(Cl)cc5c4)c3)c(F)cc12 [Example 180, N-((1-amino-7-fluoroisoquinolin-6-yl)methyl)-2-((3-chloroquinolin-6-yl)methyl)isonicotinamide]
4 | < 100 nM | < 100 nM | Nc1nccc2c(F)c(CNC(=O)c3ccnc(Cc4ccc5ncc(Cl)cc5c4)c3)ccc12 [Example 178, N-((1-amino-5-fluoroisoquinolin-6-yl)methyl)-2-((3-chloroquinolin-6-yl)methyl)isonicotinamide]
5 | < 100 nM | < 100 nM | Cc1cc2c(N)nccc2cc1CNC(=O)c1ccnc(Cc2ccc3ncc(C(F)(F)F)cc3c2)c1 [Example 183, N-((1-amino-7-methylisoquinolin-6-yl)methyl)-2-((3-(trifluoromethyl)quinolin-6-yl)methyl)isonicotinamide]
6 | 100 to 1000 nM | < 100 nM | Cc1cc(CN)nc(C)c1CNC(=O)c1ccnc(Cc2ccc3ncc(Cl)cc3c2)c1 [Example 171, N-((6-(aminomethyl)-2,4-dimethylpyridin-3-yl)methyl)-2-((3-chloroquinolin-6-yl)methyl)isonicotinamide]
7 | < 100 nM | < 100 nM | Cc1nc(N)ccc1CNC(=O)c1ccnc(Cc2ccc3ncc(C(F)(F)F)cc3c2)c1 [Example 229, N-((6-amino-2-methylpyridin-3-yl)methyl)-2-((3-(trifluoromethyl)quinolin-6-yl)methyl)isonicotinamide]
8 | < 100 nM | < 100 nM | CC(C)(O)c1cc(Cc2cc(C(=O)NCc3ccc4c(N)nccc4c3)ccn2)cc2cc(Cl)cnc12 [Example 224, N-((1-aminoisoquinolin-6-yl)methyl)-2-((3-chloro-8-(2-hydroxypropan-2-yl)quinolin-6-yl)methyl)isonicotinamide]
9 | < 100 nM | < 100 nM | Cc1cc(N)nc(C)c1CNC(=O)c1cc(Cc2ccc3ncc(Cl)cc3c2)nc(C(C)(C)O)c1 [Example 210, N-((6-amino-2,4-dimethylpyridin-3-yl)methyl)-2-((3-chloroquinolin-6-yl)methyl)-6-(2-hydroxypropan-2-yl)isonicotinamide]
10 | 100 to 1000 nM | < 100 nM | Nc1nccc2cc(CNC(=O)c3ccnc(Cc4ccc5ncc(C(F)(F)F)cc5c4)c3)c(F)cc12 [Example 182, N-((1-amino-7-fluoroisoquinolin-6-yl)methyl)-2-((3-(trifluoromethyl)quinolin-6-yl)methyl)isonicotinamide]
11 | 100 to 1000 nM | < 100 nM | O=C(NCc1ccc2[nH]cc(Cl)c2c1F)c1ccnc(Cc2ccc3ncc(C(F)(F)F)cc3c2)c1 [Example 234, N-((3-chloro-4-fluoro-1H-indol-5-yl)methyl)-2-((3-(trifluoromethyl)quinolin-6-yl)methyl)isonicotinamide]
12 | 100 to 1000 nM |  | Cc1cc(N)nc(C)c1CNC(=O)c1cc(Cc2ccc3ncc(Cl)cc3c2)nc(C(=O)O)c1 [Example 209, 4-((6-amino-2,4-dimethylpyridin-3-yl)methylcarbamoyl)-6-((3-chloroquinolin-6-yl)methyl)picolinic acid]
13 |  | > 10000 nM | O=C(NCc1ccc2cnc(C(F)(F)F)n2c1)c1ccnc(Cc2ccc3ncc(Cl)cc3c2)c1 [Example 185, 2-((3-chloroquinolin-6-yl)methyl)-N-((3-(trifluoromethyl)imidazo[1,5-a]pyridin-6-yl)methyl)isonicotinamide]
14 |  | 100 to 1000 nM | Cc1c(CNC(=O)c2ccnc(Cc3ccc4ncc(Cl)cc4c3)c2)cnc2[nH]cc(Cl)c12 [Example 189, N-((3-chloro-4-methyl-1H-pyrrolo[2,3-b]pyridin-5-yl)methyl)-2-((3-chloroquinolin-6-yl)methyl)isonicotinamide]
15 |  | 1000 to 10000 nM | O=C(NCc1c[nH]c2ncc(Cl)cc12)c1ccnc(Cc2ccc3ncc(Cl)cc3c2)c1 [Example 269, N-((5-chloro-1H-pyrrolo[2,3-b]pyridin-3-yl)methyl)-2-((3-chloroquinolin-6-yl)methyl)isonicotinamide]

The next lines start with the compound.

Row | SMILES | EC50 [1] | IC50 [2]
16 | COC(=O)c1cc(Cc2cc(C(=O)NCc3c(C)cc(N)nc3C)ccn2)cc2cc(Cl)cnc12 [Example 92, methyl 6-((4-(((6-amino-2,4-dimethylpyridin-3-yl)methyl)carbamoyl)pyridin-2-yl)methyl)-3-chloroquinoline-8-carboxylate] | < 100 nM | 
17 | O=C(NCc1cc2c(Cl)c[nH]c2cc1F)c1ccnc(Cc2ccc3ncc(C(F)(F)F)cc3c2)c1 [Example 230, N-((3-chloro-6-fluoro-1H-indol-5-yl)methyl)-2-((3-(trifluoromethyl)quinolin-6-yl)methyl)isonicotinamide] | 100 to 1000 nM | < 100 nM
18 | Cc1cc(N)nc(C)c1CNC(=O)c1ccnc(Cc2cnc3[nH]c(C(F)(F)F)cc3c2)c1 [Example 152, N-((6-amino-2,4-dimethylpyridin-3-yl)methyl)-2-((2-(trifluoromethyl)-1H-pyrrolo[2,3-b]pyridin-5-yl)methyl)isonicotinamide] | 100 to 1000 nM | < 100 nM
19 | Cc1nc(N)ccc1CNC(=O)c1ccnc(Cc2ccc3ncc(CC(F)F)cc3c2)c1 [Example 279, N-((6-amino-2-methylpyridin-3-yl)methyl)-2-((3-(2,2-difluoroethyl)quinolin-6-yl)methyl)isonicotinamide] | 100 to 1000 nM | < 100 nM
20 | Cc1cnc2c(S(N)(=O)=O)cc(Cc3cc(C(=O)NCc4ccc5[nH]cc(Cl)c5c4F)ccn3)cc2c1 [Example 290, N-((3-chloro-4-fluoro-1H-indol-5-yl)methyl)-2-((3-methyl-8-sulfamoylquinolin-6-yl)methyl)isonicotinamide] | 100 to 1000 nM | < 100 nM
21 | Cc1nc(N)ccc1CNC(=O)c1ccnc(Cc2cc(CO)c3ncc(Cl)cc3c2)c1 [Example 97, N-((6-amino-2-methylpyridin-3-yl)methyl)-2-((3-chloro-8-(hydroxymethyl)quinolin-6-yl)methyl)isonicotinamide] | < 100 nM | 
22 | Cc1cc(C(=O)NCc2c(C)cc(N)nc2C)cc(Cc2ccc3ncc(Cl)cc3c2)n1 [Example 104, N-((6-amino-2,4-dimethylpyridin-3-yl)methyl)-2-((3-chloroquinolin-6-yl)methyl)-6-methylisonicotinamide] | < 100 nM | 
23 | Cc1cc(N)nc(C)c1CNC(=O)c1ccnc(Cc2cc(C(=O)O)c3ncc(Cl)cc3c2)c1 [Example 93, 6-((4-(((6-amino-2,4-dimethylpyridin-3-yl)methyl)carbamoyl)pyridin-2-yl)methyl)-3-chloroquinoline-8-carboxylic acid] | < 100 nM | 
24 | Cc1cc(N)nc(C)c1CNC(=O)c1ccnc(Cc2ccc3ncc(Cl)cc3c2F)c1 [Example 102, N-((6-amino-2,4-dimethylpyridin-3-yl)methyl)-2-((3-chloro-5-fluoroquinolin-6-yl)methyl)isonicotinamide] | 100 to 1000 nM | 
25 | Cc1cc(N)nc(C)c1CNC(=O)c1ccnc(Cc2ccc3c(cc(Cl)c[n+]3[O-])c2)c1 [Example 99, 6-((4-(((6-amino-2,4-dimethylpyridin-3-yl)methyl)carbamoyl)pyridin-2-yl)methyl)-3-chloroquinoline 1-oxide] | < 100 nM | 
26 | O=C(NCc1cnc2ccc(Cl)cn12)c1ccnc(Cc2ccc3ncc(Cl)cc3c2)c1 [Example 157, N-((6-chloroimidazo[1,2-a]pyridin-3-yl)methyl)-2-((3-chloroquinolin-6-yl)methyl)isonicotinamide] |  | > 10000 nM
27 | Cc1nc(N)ccc1CNC(=O)c1ccnc(Cc2cc(Cl)c3ncc(Cl)cc3c2)c1 [Example 101, N-((6-amino-2-methylpyridin-3-yl)methyl)-2-((3,8-dichloroquinolin-6-yl)methyl)isonicotinamide] | < 100 nM | 
